For data set [1] the following is noted: Liquid; for mass density: 101.33 kPa, Pycnometric method; for vapor or sublimation pressure: Ebulliometric method (Recirculating still).
Data set [2] in a line: refractive index (Na D-line) (dimensionless). The settings on record: 298.15 K; 101.33 kPa; Liquid; Standard Abbe refractometry.

The record followed here is the NIST ThermoML archive (doi:10.1021/acs.jced.7b00377).

SMILES strings stand for the structures. Numbers after ± are expanded uncertainties.

Consider `CCOCOCC(C)C` [1-(ethoxymethoxy)-2-methylpropane], for which, in data set [1] (298.15 K), the mass density was 823.8 ± 0.6 kg/m3. Moreover, the “vapor or sublimation pressure” value is listed as 5 ± 0.05 kPa in data set [1] (320.54 K); 10 ± 0.06 kPa in data set [1] (335.1 K); 15 ± 0.09 kPa in data set [1] (344.53 K); 20.02 ± 0.12 kPa in data set [1] (351.76 K); 26.67 ± 0.17 kPa in data set [1] (359.38 K); 39.9 ± 0.23 kPa in data set [1] (370.93 K). In addition, the “vapor or sublimation pressure” value in data set [1] (379.83 K) was 53.33 ± 0.3 kPa; in data set [1] (386.16 K) it was 64.8 ± 0.37 kPa; in data set [1] (393.18 K) it was 79.6 ± 0.44 kPa; in data set [1] (397.46 K), 89.9 ± 0.5 kPa; in data set [1] (401.87 K), 101.33 ± 0.55 kPa; in data set [1] (405.77 K) it was 112 ± 0.61 kPa. In addition, the “vapor or sublimation pressure” value in data set [1] (410.02 K) turned out to be 125 ± 0.67 kPa. Moreover, the refractive index in data set [2] was found to be 1.3873 ± 0.0004.
Take `CC(C)CO` [2-methyl-1-propanol]: in data set [1] (293.15 K), the mass density was determined as 801.8 ± 0.6 kg/m3. In data set [1] (381.08 K), the “vapor or sublimation pressure” value came out at 101.33 ± 0.7 kPa. Also, the refractive index in data set [2] was 1.3939 ± 0.0004.
With `CCCCO` [butan-1-ol], the mass density in data set [1] (298.15 K) is listed as 809.5 ± 0.6 kg/m3. The “vapor or sublimation pressure” value in data set [1] (390.9 K) stood at 101.33 ± 0.7 kPa. Further, in data set [2], the refractive index was 1.3971 ± 0.0004.
